Measurements as given in PubChem BioAssay AID720587 (Broad Institute, 2013).
Active and inactive are the calls of the source.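 Rule for the calls: active = fitted curve reaches -35% activity change at a concentration below twice the top valid dose tested; inactive = the rest, including effects opposite to the expected direction.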

test system: not listed separately; experiment: A673 Ewing sarcoma viability loss – cell-based, CellTiter-Glo luminescence, cherry-pick retest, confirmation (AID 720587); conditions: A673 Ewing sarcoma viability, CellTiter-Glo ATP luminescence, 72 h; at 23.5 µM (top of the series)

Structure (SMILES)	activity change, negative = cytotoxicity
COC(=O)C[C@@H]1CC[C@@H]2[C@H](COc3ccc(NC(=O)c4cccc(F)c4)cc3C(=O)N2C)O1	-1.57% (inactive)

same assay, conditions: A673 Ewing sarcoma viability, CellTiter-Glo ATP luminescence, 72 h; at 26 µM (top of the series)

Structure (SMILES)	activity change, negative = cytotoxicity
Cc1ccc(S(=O)(=O)N(C)C[C@H]2Oc3c(cccc3N(C)C)C(=O)N([C@@H](C)CO)C[C@@H]2C)cc1	-1.85% (inactive)
COc1cc(C(c2c(C)[nH][nH]c2=O)c2c(C)[nH][nH]c2=O)ccc1OC(C)C	-4.73% (inactive)
O=C(Cc1nn[nH]n1)c1ccccc1O	0.33% (inactive)
Cc1cc(-c2nc3ccccc3s2)ccc1N	-21.8% (inactive)
O=C1C(=O)N(Cc2cccs2)c2ccccc21	-4.57% (inactive)
COc1ccc(N=C(NN)c2ccc3ccccc3n2)cc1	-15.8% (inactive)
O=C(NCc1ccccn1)c1ccc(CNS(=O)(=O)c2cccc(Cl)c2)cc1	0.155% (inactive)
Cc1ccc(NC(=O)COC(=O)c2ccc3c(c2)OCO3)cc1S(=O)(=O)N1CCCCC1	-4.65% (inactive)
O=C(O)c1ccc(N/N=C/c2c[nH]c3ccccc23)cc1	-1.6% (inactive)
CO[C@H]1CN(C)C(=O)c2cc(NC(=O)NC(C)C)ccc2OC[C@H](C)N(Cc2ccc(-c3ccccn3)cc2)C[C@@H]1C	-4.3% (inactive)
COc1ccc(OC)c(-c2cc(C(F)(F)F)c3c(n2)sc2c(O)cc(=O)[nH]c23)c1	-2.54% (inactive)
CC(NC(=O)c1ccco1)c1nc(-c2ccc(C(C)(C)C)cc2)no1 (stereo not given)	-2.68% (inactive)
CC(Oc1cccc(Cl)c1)C(=O)NCCCCc1ccccc1 (stereo not given)	3.26% (inactive)
COc1ccc(/C=C2\SC(=O)N(CCCC(=O)Nc3ccc(C(=O)O)cc3)C2=O)cc1	-0.477% (inactive)
S=C(NCCN1CCOCC1)Nc1ccccc1Cl	3% (inactive)
O=C(O)c1ccc2cc(-c3ccccc3)[nH]c2c1	-2.41% (inactive)
Cc1cc(Br)ccc1N=C1C(=O)Nc2ccccc21	-19% (inactive)
Cc1cc(-c2nc3cc(F)ccc3s2)ccc1N	-13.6% (inactive)
COc1ccc(/C=N/Nc2ccc(C(=O)O)cc2)cc1Br	-2.31% (inactive)
O=C1Nc2ccccc2C1=Nc1ccccc1-c1ccccc1	-7.56% (inactive)
C/C=C/c1ccc([C@H]2[C@@H](CO)N3C(=O)CN(S(=O)(=O)c4cccc(F)c4)C[C@@H]23)cc1	-5.5% (inactive)
COc1ccc2cc(C(N)=O)/c(=N\NC(=O)c3ccccc3)oc2c1	-2% (inactive)
COc1ccccc1CNC(=O)C[C@@H]1CC[C@H]2[C@@H](COC[C@H](O)CN2C(=O)Nc2ccc(C(F)(F)F)cc2)O1	-9.47% (inactive)
COc1cc(OC)cc(-c2cc3nc(C)c(CCC(=O)O)c(C)n3n2)c1	0.866% (inactive)
CN(C)C(=O)c1cccc(-c2ccc(C3[C@@H]4CN(Cc5nccs5)C[C@H]3N4)cc2)c1 (stereo not given in full)	-4.24% (inactive)
CCCCN=C(NNc1ccc(Br)cc1)C(=O)OCC	-5.32% (inactive)
c1ccc(-c2ccc([C@H]3[C@H]4CNC[C@@H]3N4Cc3cc(-c4ccccc4)on3)cc2)cc1	-11.9% (inactive)

test system: A673 Ewing sarcoma viability, CellTiter-Glo ATP luminescence, 72 h; experiment: as above; conditions: not given

Structure (SMILES)	AC35
COCC(=O)Nc1ccc2c(c1)[C@@H]1C[C@@H](CC(=O)NCc3ccc(-c4ccccc4)cc3)O[C@@H](CO)[C@@H]1O2	12.7 µM
CN1c2ccc(-c3ccc(C#N)cc3)cc2[C@H]2[C@H](CCN2S(=O)(=O)c2cccc(F)c2)[C@H]1CO	3.45 µM
CO[C@H]1CN(C)C(=O)c2ccc(NC(=O)c3ccc(-c4ccccc4)cc3)cc2OC[C@H](C)NC[C@H]1C	10.5 µM
CCc1nc(N)nc(N)c1-c1ccc(Cl)cc1	8.71 µM
CC(C)(C)c1ccc(Oc2ccc(NC(=O)c3ccccc3C(=O)O)cn2)cc1	22.2 µM
COC(=O)C[C@@H]1CC[C@@H]2[C@H](COc3ccc(NC(=O)Nc4cccc(C#N)c4)cc3C(=O)N2C)O1	12 µM
C[C@H]1CN([C@@H](C)CO)C(=O)Cc2cc(NC(=O)CCC(F)(F)F)ccc2O[C@H]1CN(C)Cc1ccc(C(=O)Nc2ccccc2N)cc1	8.75 µM
C[C@H]1CN([C@@H](C)CO)C(=O)c2cc(N(C)C)ccc2O[C@H]1CN(C)Cc1ccc(C(=O)Nc2ccccc2N)cc1	8.84 µM
O=C(Nc1ccc2c(c1)OCO2)N1C[C@@H]2N[C@H](C1)C2c1ccc(C=Cc2ccccc2)cc1 (stereo not given in full)	4.6 µM
CCN1C/C(=C/c2ccc(OC)c(O)c2)C(=O)/C(=C/c2ccc(OC)c(O)c2)C1	11.1 µM
CCOC(=O)[C@]12Cc3ccc(C)cc3[C@H]1N(C1CCCCC1)C(=O)c1ccccc12	5.01 µM
COc1cc(C(=O)N2CCC(N3CCN(C)CC3)CC2)ccc1Nc1ncc2c(n1)N(C)c1ccccc1C(=O)N2C	10 µM
CC(=O)OC1CC(OC2C(O)CC(OC3C(O)CC(OC4CCC5(C)C(CCC6C5CCC5(C)C(C7=CC(=O)OC7)CCC65O)C4)OC3C)OC2C)OC(C)C1OC1OC(CO)C(O)C(O)C1O (stereo not given)	0.105 µM
C[C@H](CO)N1C[C@H](C)[C@H](CN(C)Cc2ccc(Oc3ccccc3)cc2)Oc2ccc(NC(=O)Cn3cnnn3)cc2CC1=O	8.16 µM
COC(=O)c1ccccc1-c1c2ccc(=N)cc-2oc2cc(N)ccc12	3.64 µM
COc1cccc(O)c1CN1CCC(C(=O)Nc2ccc(-c3cccc(C)c3)cc2)CC1	11 µM
C[C@H](CO)N1C[C@H](C)[C@H](CN(C)Cc2ccc(C(F)(F)F)cc2)Oc2ccc(NC(=O)CCCCCC(=O)Nc3ccccc3N)cc2CC1=O	7.93 µM
C[C@@H]1CN([C@@H](C)CO)C(=O)c2cccc(NS(=O)(=O)c3ccc(Cl)cc3)c2O[C@@H]1CN(C)Cc1ccc(C(=O)Nc2ccccc2N)cc1	8.47 µM
C[C@]12CC[C@H](O)C[C@H]1CC[C@@H]1[C@@H]2CC[C@]2(C)[C@@H](C3=CC(=O)OC3)CC[C@]12O	0.62 µM

Structure (SMILES)	AC35
COC(=O)C[C@H]1CC[C@H]2[C@@H](COc3ccc(NC(=O)Nc4cccc(Cl)c4)cc3C(=O)N2C)O1	14.7 µM
Oc1c(Cl)cc(Cl)c2cccnc12	5.58 µM
C[C@H](CO)N1C[C@H](C)[C@H](CN(C)Cc2ccc(C(=O)Nc3ccccc3N)cc2)Oc2c(cccc2N(C)C)C1=O	17.6 µM
CC(C)Oc1ccc(Br)cc1C(=O)N/N=C/c1c[nH]c2ccccc12	22.6 µM
C(=N\Nc1nc2ccccc2s1)/c1ccccn1	0.696 µM
N=c1ccn2c(n1)O[C@H]1[C@H](O)[C@@H](CO)O[C@H]12	0.74 µM
N#C[C@H]1[C@H](c2ccc(-c3ccccc3F)cc2)[C@@H](CO)N1C(=O)Cc1ccccc1	10.2 µM
COc1ccccc1N(/N=C1\Sc2ccccc2C1=O)C(C)=O	14.8 µM
C=C1C(=O)C=C[C@]2(C)C[C@@H]3OC(=O)[C@](C)(O)[C@H]3C[C@@H]12	4.67 µM
COc1ccc(-c2cn(-c3ccc(OC)cc3)c3[n+]2-c2ccccc2CC3)cc1	13.6 µM
COC(=O)CC1(C(=O)OC)Oc2ccc(Br)cc2C(=O)N1c1cccc(Cl)c1Cl (stereo not given)	14.2 µM
CN(C)C(=S)N=Nc1[nH]c2ccccc2c1O	11.1 µM
C[C@@H]1CN([C@H](C)CO)C(=O)Cc2cc(N(C)C)ccc2O[C@H]1CN(C)Cc1ccc(C(=O)Nc2ccccc2N)cc1	12.7 µM
COc1cc(-c2coc3c(C(=O)NCc4ccc(C(F)(F)F)cc4)cccc23)ccc1O	13.7 µM
COc1ccc(C2c3cc4c(cc3OC(NNC(N)=O)C2C)OCO4)cc1 (stereo not given)	12.4 µM
CC(C)(C)c1ccc(Cn2c(=O)cnc3ccccc32)cc1	12.5 µM
COc1ccc(NC(=O)N2CCCCN3[C@@H](CO)[C@H](c4ccc(C5=CCCCC5)cc4)[C@@H]3C2)cc1	10.3 µM
CN(C)c1ccc(/C=N/Nc2nc3ccccc3o2)cc1	20.9 µM
CCOc1ccc(OCc2ccc(C(=O)NN=Cc3ccc[nH]3)cc2)cc1	0.667 µM

Structure (SMILES)	AC35
COC(=O)C[C@@H]1CC[C@@H]2[C@@H](COc3ccc(NC(=O)Nc4cccc(C#N)c4)cc3C(=O)N2C)O1	9.17 µM
C[C@H]1CN([C@@H](C)CO)C(=O)c2cc(NS(=O)(=O)c3ccc(Cl)cc3)ccc2O[C@H]1CN(C)Cc1ccc(C(=O)Nc2ccccc2N)cc1	13.1 µM
Cc1cccc(NC(=O)CN2CCN(C(=O)CNC(=O)c3ccc(-c4ccccc4)cc3)CC2)c1C	12.8 µM
C[C@H]1CN([C@@H](C)CO)C(=O)c2cccc(NC(=O)c3ccc(-c4nccs4)cc3)c2O[C@@H]1CN(C)Cc1ccc(C(=O)Nc2ccccc2N)cc1	18.1 µM
CCc1cccc2c(C(=O)CN3C(=O)NC4(CCCCC4)C3=O)c[nH]c12	8.95 µM
O=C1c2ccccc2C(=O)N1CCCCNc1ccccc1	10.8 µM
C/C(=N\NC(=O)c1n[nH]c2c1CCC2)c1cccs1	19.3 µM
O=c1cc(-c2ccccc2)oc2ccc3ccccc3c12	5.83 µM
C=C1C(=O)OC2C1CCC(C)C1C=CC(=O)C12C (stereo not given)	7.41 µM
CC(=O)OC1CC2(O)C3CCC4CC(O)CCC4(C)C3CCC2(C)C1C1=CC(=O)OC1 (stereo not given)	0.213 µM
CCC1=Nc2cc(C(=O)NCC3CCCO3)ccc2Sc2ccc(Br)cc21 (stereo not given)	4.39 µM
COc1ccc(S(=O)(=O)N2CCCc3nc(-c4ccc(F)cc4)ccc32)cc1	5.35 µM
Cc1c(N=Cc2cc(Br)cc(Br)c2O)cccc1C(=O)O	20 µM
O=C(CCCN1C(=O)S/C(=C\c2ccccc2)C1=O)NNC(=O)c1ccccc1O	18.7 µM
CCS(=O)(=O)N1Cc2ccccc2CC1C(=O)Nc1nnc(SCc2ccc(C#N)cc2)s1 (stereo not given)	12.5 µM
COC1C(O)C(C)OC(OC2C(Oc3cccc4c(O)c5c(=O)oc6ccc(C)c7c(=O)oc(c34)c5c67)OC(C)C(O)C2O)C1O (stereo not given)	6.33 µM
C[C@H]1CN([C@@H](C)CO)C(=O)Cc2cc(NC(=O)CCCCCC(=O)Nc3ccccc3N)ccc2O[C@H]1CN(C)Cc1ccc(Oc2ccccc2)cc1	6.08 µM
C[C@@H]1CN([C@H](C)CO)C(=O)c2cc(C#CCN(C)C)cnc2O[C@H]1CN(C)Cc1ccc(-c2ccccc2)cc1	10.2 µM
O=C(C1CC1)N1C[C@@H]2N[C@H](C1)C2c1ccc(/C=C/c2ccccc2)cc1 (stereo not given in full)	15.2 µM
